pEC50: −log10 of the molar value.
Columns and labels:
[1] = biological target: Glucagon-like peptide 1 receptor (Homo sapiens, UniProt P43220); assay: Agonist activity at N-terminal hemagglutinin-tagged human GLP-1R expressed in CHO cells co-transfected with pcDNA3.0 assessed as increase in intracellular cAMP accumulation incubated for 30 mins by microplate reader analysis; format: functional, cell-based
[2] = Observed apparent oral clearance in Sprague-Dawley rat at 5 mg/kg, po measured up to 24 hrs by LC-MS/MS analysis; format: ADME, organism-based; conditions: in vivo
[3] = in vivo; conditions: Sprague-Dawley, rat, po, 5 mg/kg
[4] = AUC (0 to infinity) in Sprague-Dawley rat at 5 mg/kg, po measured up to 24 hrs by LC-MS/MS analysis; format: ADME, organism-based; conditions: in vivo
[5] = Half life in Sprague-Dawley rat at 5 mg/kg, po measured up to 24 hrs by LC-MS/MS analysis; format: ADME, organism-based; conditions: in vivo
[6] = Cmax in Sprague-Dawley rat at 5 mg/kg, po measured up to 24 hrs by LC-MS/MS analysis; format: ADME, organism-based; conditions: in vivo
[7] = Fraction of the dose absorbed in Sprague-Dawley rat at 5 mg/kg, po measured up to 24 hrs by LC-MS/MS analysis; format: ADME, organism-based; conditions: in vivo, read-out: Fabs
[8] = biological target: hERG (KCNH2) (Homo sapiens, UniProt Q12809); assay: Inhibition of hERG at 10 uM at -80 mV holding potential by whole-cell patch clamp analysis relative to control; format: toxicity
Sequence of hERG (KCNH2) (Q12809 whole entry): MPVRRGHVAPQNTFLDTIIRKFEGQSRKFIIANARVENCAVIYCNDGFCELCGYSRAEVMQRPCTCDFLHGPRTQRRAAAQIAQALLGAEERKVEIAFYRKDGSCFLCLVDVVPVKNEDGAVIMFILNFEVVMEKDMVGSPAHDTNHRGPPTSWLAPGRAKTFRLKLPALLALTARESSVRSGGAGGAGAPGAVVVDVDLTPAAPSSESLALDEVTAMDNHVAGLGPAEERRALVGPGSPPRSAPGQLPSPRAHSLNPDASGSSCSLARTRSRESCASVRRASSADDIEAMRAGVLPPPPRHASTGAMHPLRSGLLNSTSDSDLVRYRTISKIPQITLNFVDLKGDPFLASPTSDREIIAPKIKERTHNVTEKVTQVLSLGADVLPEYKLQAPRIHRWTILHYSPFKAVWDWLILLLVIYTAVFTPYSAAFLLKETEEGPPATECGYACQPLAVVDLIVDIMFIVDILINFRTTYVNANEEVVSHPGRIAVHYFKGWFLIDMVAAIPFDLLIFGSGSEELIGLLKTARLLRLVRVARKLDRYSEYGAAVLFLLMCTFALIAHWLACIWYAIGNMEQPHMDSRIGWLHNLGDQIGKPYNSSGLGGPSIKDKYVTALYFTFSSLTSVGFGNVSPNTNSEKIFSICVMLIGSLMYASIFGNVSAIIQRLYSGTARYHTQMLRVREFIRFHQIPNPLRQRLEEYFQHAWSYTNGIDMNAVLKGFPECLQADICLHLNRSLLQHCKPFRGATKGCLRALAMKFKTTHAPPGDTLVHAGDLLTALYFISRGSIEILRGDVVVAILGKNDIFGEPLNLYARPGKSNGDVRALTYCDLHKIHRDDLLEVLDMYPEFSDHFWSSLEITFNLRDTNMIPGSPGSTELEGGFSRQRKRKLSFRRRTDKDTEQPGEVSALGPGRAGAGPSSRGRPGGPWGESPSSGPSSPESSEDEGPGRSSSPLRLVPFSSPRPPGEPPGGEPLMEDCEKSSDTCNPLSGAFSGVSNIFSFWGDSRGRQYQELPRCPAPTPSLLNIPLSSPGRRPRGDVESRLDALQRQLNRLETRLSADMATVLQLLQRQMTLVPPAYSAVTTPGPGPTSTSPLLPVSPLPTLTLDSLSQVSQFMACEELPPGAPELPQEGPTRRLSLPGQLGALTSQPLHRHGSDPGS

Sequence of Glucagon-like peptide 1 receptor (P43220 whole entry): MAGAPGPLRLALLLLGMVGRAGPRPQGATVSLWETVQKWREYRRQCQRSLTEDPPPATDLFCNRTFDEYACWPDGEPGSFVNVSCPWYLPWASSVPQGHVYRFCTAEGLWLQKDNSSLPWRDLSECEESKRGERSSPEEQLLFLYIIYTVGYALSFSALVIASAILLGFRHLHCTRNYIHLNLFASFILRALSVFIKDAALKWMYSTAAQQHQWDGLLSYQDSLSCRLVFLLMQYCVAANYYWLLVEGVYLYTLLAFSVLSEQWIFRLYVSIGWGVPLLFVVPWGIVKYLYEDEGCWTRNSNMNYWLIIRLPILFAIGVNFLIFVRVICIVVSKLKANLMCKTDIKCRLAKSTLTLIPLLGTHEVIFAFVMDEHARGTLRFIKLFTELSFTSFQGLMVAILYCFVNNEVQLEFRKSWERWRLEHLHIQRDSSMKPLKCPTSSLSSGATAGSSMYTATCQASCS

| Structure (SMILES) | pEC50 [1] | other results |
| --- | --- | --- |
| O=C(O)c1cc2c(nc(CN3CCC(Oc4cccc(Cc5ccccc5)n4)CC3)n2C[C@@H]2CCO2)s1 | 7.06 | – |
| O=C(O)c1cc2c(nc(CN3CCC(Oc4cccc(Cc5ccc(Cl)cc5)n4)CC3)n2C[C@@H]2CCO2)s1 | 8.58 | – |
| CC1(c2ccc(COc3cccc(C4=CCN(Cc5nc6ccc(C(=O)O)cc6n5C[C@@H]5CCO5)CC4)n3)c(F)c2)CC(F)(F)C1 | 8.21 | – |
| O=C(O)c1cc2c(nc(CN3CCC(Oc4cccc(OCc5ccc(Cl)cc5)n4)CC3)n2C[C@@H]2CCO2)s1 | 8.02 | – |
| O=C(O)c1cc2c(nc(CN3CCC(Oc4nccc(Cc5ccc(Cl)cc5)n4)CC3)n2C[C@@H]2CCO2)s1 | 6.40 | – |
| O=C(O)c1cc2c(nc(CN3CCC(Oc4cccc(Cc5ccc6cn[nH]c6c5F)n4)CC3)n2C[C@@H]2CCO2)s1 | 6.75 | – |
| O=C(O)c1cc2c(nc(CN3CCC(Oc4cccc(Cc5ccc(Cl)cc5F)n4)CC3)n2C[C@@H]2CCO2)s1 | 8.43 | – |
| N#Cc1ccc(Cc2cccc(OC3CCN(Cc4nc5sc(C(=O)O)cc5n4C[C@@H]4CCO4)CC3)n2)c(F)c1 | 8.01 | – |
| O=C(O)c1cc2c(nc(CN3CCC(Oc4cccc(Cc5ccc6cnn(CC(F)F)c6c5)n4)CC3)n2C[C@@H]2CCO2)s1 | 7.84 | – |
| O=C(O)c1cc2c(nc(CN3CCC(Oc4cccc(Cc5ccc(-c6ccn(C(F)F)n6)cc5)n4)CC3)n2C[C@@H]2CCO2)s1 | 7.77 | – |
| N#Cc1ccc(COc2cccc(OC3CCN(Cc4nc5sc(C(=O)O)cc5n4C[C@@H]4CCO4)CC3)n2)c(F)c1 | 8.01 | – |
| CC1(c2ccc(COc3cccc(-c4ccc(Cc5nc6ccc(C(=O)O)nc6n5C[C@@H]5CCO5)c(F)c4)n3)c(F)c2)CC(F)(F)C1 | 8.58 | – |
| Cn1ncc2ccc(Cc3cccc(OC4CCN(Cc5nc6sc(C(=O)O)cc6n5C[C@@H]5CCO5)CC4)n3)cc21 | 6.59 | – |
| N#Cc1ccc(Cc2cccc(OC3CCN(Cc4nc5sc(C(=O)O)cc5n4C[C@@H]4CCO4)CC3)n2)cc1 | 8.26 | – |
| O=C(O)c1ccc2nc(CN3CCC(Oc4cccc(COc5cc(Cl)c6occc6c5)n4)CC3)n(C[C@@H]3CCO3)c2n1 | 8.44 | – |
| CC1(c2ccc(COc3cccc(C4=CCN(Cc5nc6ccc(C(=O)O)nc6n5C[C@@H]5CCO5)CC4)n3)c(F)c2)CC(F)(F)C1 | 8.54 | – |
| N#Cc1ccc(Cc2cccc(OC3CCN(Cc4nc5ccc(C(=O)O)cc5n4C[C@@H]4CCO4)CC3)n2)c(F)c1 | 8.94 | – |
| N#Cc1ccc(Cc2cccc(OC3CCN(Cc4nc5sc(C(=O)O)cc5n4C[C@@H]4CCO4)CC3)n2)c2occc12 | 7.01 | – |

| Structure (SMILES) | pEC50 [1] | other results |
| --- | --- | --- |
| O=C(O)c1cc2c(nc(CN3CCC(Oc4cccc(COc5ccc(Cl)cc5F)n4)CC3)n2C[C@@H]2CCO2)s1 | 8.75 | – |
| O=C(O)c1ccc2nc(CN3CCC(Oc4cccc(Cc5ccc6cnn(CC(F)F)c6c5F)n4)CC3)n(C[C@@H]3CCO3)c2n1 | 8.47 | – |
| O=C(O)c1cc2c(nc(CN3CCC(Oc4ccnc(Cc5ccc(Cl)c6ccoc56)n4)CC3)n2C[C@@H]2CCO2)s1 | 8.74 | – |
| Cn1ncc2ccc(Cc3cccc(OC4CCN(Cc5nc6ccc(C(=O)O)nc6n5C[C@@H]5CCO5)CC4)n3)c(F)c21 | 6.99 | – |
| O=C(O)c1cc2c(nc(CN3CCC(Oc4cccc(Cc5ccc(Cl)c6ccoc56)n4)CC3)n2C[C@@H]2CCO2)s1 | 7.16 | – |
| O=C(O)c1cc2c(nc(CN3CCC(Oc4cccc(Cc5ccccc5F)n4)CC3)n2C[C@@H]2CCO2)s1 | 7.09 | – |
| O=C(O)c1ccc2nc(CN3CCC(Oc4cccc(Cc5ccc(C6COC6)cc5)n4)CC3)n(C[C@@H]3CCO3)c2n1 | 7.25 | – |
| Cc1nn(C)c2c(F)c(Cc3cccc(OC4CCN(Cc5nc6ccc(C(=O)O)nc6n5C[C@@H]5CCO5)CC4)n3)ccc12 | 8.76 | – |
| O=C(O)c1ccc2nc(CN3CCC(Oc4cccc(Cc5ccc6cn[nH]c6c5F)n4)CC3)n(C[C@@H]3CCO3)c2n1 | 7.33 | – |
| COc1ccc(C(F)(F)F)cc1OCc1nccc(OC2CCN(Cc3nc4sc(C(=O)O)cc4n3C[C@@H]3CCO3)CC2)n1 | 7.71 | – |
| COc1ccc(Cc2cccc(OC3CCN(Cc4nc5sc(C(=O)O)cc5n4C[C@@H]4CCO4)CC3)n2)cc1 | 7.69 | – |
| Cn1ncc2ccc(Cc3cccc(OC4CCN(Cc5nc6c(F)cc(C(=O)O)cc6n5C[C@@H]5CCO5)CC4)n3)c(F)c21 | 9.02 | – |
| N#Cc1ccc(Cc2cccc(OC3CCN(Cc4nc5ccc(C(=O)O)nc5n4C[C@@H]4CCO4)CC3)n2)c2occc12 | 8.10 | – |
| Cn1ncc2ccc(Cc3cccc(OC4CCN(Cc5nc6sc(C(=O)O)cc6n5C[C@@H]5CCO5)CC4)n3)c(F)c21 | 7.11 | – |
| Cn1ccc(-c2ccc(Cc3cccc(OC4CCN(Cc5nc6sc(C(=O)O)cc6n5C[C@@H]5CCO5)CC4)n3)cc2)n1 | 6.18 | – |
| CC1(c2ccc(COc3cccc(-c4ccc(Cc5nc6ccc(C(=O)O)cc6n5C[C@@H]5CCO5)c(F)c4)n3)c(F)c2)CC(F)(F)C1 | 8.51 | – |
| O=C(O)c1cc2c(nc(CN3CCC(Oc4ccnc(COc5ccc(Cl)cc5)n4)CC3)n2C[C@@H]2CCO2)s1 | 8.43 | – |

The next molecules have a higher pEC50 [1] than those just listed; values first:

| pEC50 [1] | Structure (SMILES) | other results |
| --- | --- | --- |
| 9.96 | O=C(O)c1ccc2nc(CN3CCC(Oc4cccc(Cc5ccc(Cl)c6c5OCC6)n4)CC3)n(C[C@@H]3CCO3)c2c1 | – |
| 9.34 | N#Cc1ccc(OCc2cccc(OC3CCN(Cc4nc5ccc(C(=O)O)cc5n4C[C@@H]4CCO4)CC3)n2)c(OC(F)(F)F)c1 | – |
| 10.06 | O=C(O)c1ccc2nc(CN3CCC(c4cccc(OCc5ccc(C6CC(F)(F)C6)cc5F)n4)CC3)n(C[C@@H]3CCO3)c2c1 | – |
| 10.02 | O=C(O)c1cc(F)c2nc(CN3CC=C(c4cccc(OCc5ccc(CC(F)(F)F)cc5F)n4)CC3)n(C[C@@H]3CCO3)c2c1 | – |
| 9.89 | O=C(O)c1ccc2nc(CN3CC=C(c4cccc(OCc5ccc(CC(F)(F)F)cc5F)n4)CC3)n(C[C@@H]3CCO3)c2n1 | – |
| 10.15 | C[C@H]1CN(c2cccc(OCc3ccc(CC(F)F)cc3F)n2)CCN1Cc1nc2c(F)cc(C(=O)O)cc2n1C[C@@H]1CCO1 | – |
| 9.35 | COc1cc(C#N)ccc1OCc1nccc(OC2CCN(Cc3nc4sc(C(=O)O)cc4n3C[C@@H]3CCO3)CC2)n1 | – |
| 9.70 | COc1cc2c(Cl)ccc(OCc3cccc(OC4CCN(Cc5nc6ccc(C(=O)O)cc6n5C[C@@H]5CCO5)CC4)n3)c2o1 | – |
| 9.68 | O=C(O)c1ccc2nc(CN3CCC(Oc4cccc(COc5ccc(Cl)c6cc(F)oc56)n4)CC3)n(C[C@@H]3CCO3)c2c1 | – |
| 9.47 | O=C(O)c1ccc2nc(CN3CCC(Oc4ccnc(Cc5ccc(Cl)c6ccoc56)n4)CC3)n(C[C@@H]3CCO3)c2n1 | – |
| 9.49 | N#Cc1ccc(OCc2nccc(OC3CCN(Cc4nc5sc(C(=O)O)cc5n4C[C@@H]4CCO4)CC3)n2)c(F)c1 | – |
| 9.04 | O=C(O)c1cc2c(nc(CN3CCC(Oc4cccc(COc5ccc(Cl)cc5)n4)CC3)n2C[C@@H]2CCO2)s1 | – |
| 10.82 | O=C(O)c1cc(F)c2nc(CN3CC=C(c4cccc(OCc5ccc(CC(F)F)cc5F)n4)CC3)n(C[C@@H]3CCO3)c2c1 | – |
| 9.49 | O=C(O)c1ccc2nc(CN3CCC(Oc4cccc(COc5ccc6c(Cl)nn(CC(F)F)c6c5F)n4)CC3)n(C[C@@H]3CCO3)c2n1 | – |
| 10.80 | COc1cc(C(=O)O)cc2c1nc(CN1CCC(c3cccc(OCc4ccc(C5CC(F)(F)C5)cc4F)n3)CC1)n2C[C@@H]1CCO1 | CL/F [2]: 1490 mL/min/kg; Tmax at 24 h [3]: 1.67 h; AUC(0-inf) [4]: 61.8 ng·h/mL; half-life [5]: 90 min; Cmax [6]: 20.2 ng/mL; Fa at 24 h [7]: 1.99% |
| 9.10 | Cn1nc(Cl)c2ccc(OCc3cccc(OC4CCN(Cc5nc6ccc(C(=O)O)nc6n5C[C@@H]5CCO5)CC4)n3)c(F)c21 | – |
| 9.46 | O=C(O)c1cc(F)c2nc(CN3CCC(c4cccc(OCc5ccc(CC(F)(F)F)cc5F)n4)CC3)n(C[C@@H]3CCO3)c2c1 | – |
| 10.07 | O=C(O)c1cc(F)c2nc(CN3CCN(c4cccc(OCc5ccc(CC(F)F)cc5F)n4)CC3)n(C[C@@H]3CCO3)c2c1 | – |
| 9.10 | O=C(O)c1cc2c(nc(CN3CCC(Oc4ccnc(Cc5ccc(Cl)cc5)n4)CC3)n2C[C@@H]2CCO2)s1 | – |
| 9.28 | N#Cc1ccc(OCc2cccc(OC3CCN(Cc4nc5sc(C(=O)O)cc5n4C[C@@H]4CCO4)CC3)n2)c(F)c1 | inhibition at 10 µM [8]: 0.9% |
| 10.02 | O=C(O)c1cc(F)c2nc(CN3CCC(c4cccc(OCc5ccc(CC(F)F)cc5F)n4)CC3)n(C[C@@H]3CCO3)c2c1 | – |
| 9.70 | O=C(O)c1cc2c(nc(CN3CCC(Oc4ccnc(COc5ccc(Cl)cc5F)n4)CC3)n2C[C@@H]2CCO2)s1 | – |
| 9.46 | O=C(O)c1ccc2nc(CN3CCC(Oc4cccc(Cc5ccc(Cl)c6occc56)n4)CC3)n(C[C@@H]3CCO3)c2n1 | – |
| 9.08 | O=C(O)c1ccc2nc(CN3CCC(Oc4cccc(COc5ccc6cn[nH]c6c5)n4)CC3)n(C[C@@H]3CCO3)c2n1 | – |
| 9.89 | O=C(O)c1ccc2nc(CN3CC=C(c4cccc(OCc5ccc(CC(F)F)cc5F)n4)CC3)n(C[C@@H]3CCO3)c2n1 | – |
| 9.59 | O=C(O)c1ccc2nc(CN3CCC(c4cccc(OCc5ccc(CC(F)F)cc5F)n4)CC3)n(C[C@@H]3CCO3)c2c1 | – |
